Where two headings read alike, the source gives them in different places.
What was measured:
[1] = human, in vivo, po
[2] = 0.1 μM drug preincubated with serum 10 min at 37°

Row | Compound | Drug level recovered in the radioreceptor assay [2] | further results
1 | O=C(CCCN1CCC(O)(c2ccc(Cl)cc2)CC1)c1ccc(F)cc1 [Haloperidol] |  | concentration [1]: 10 to 350 nM
2 | CN(C)CCCN1c2ccccc2Sc2ccc(Cl)cc21 [chlorpromazine] |  | Drug level recovered in the radioreceptor assay (1 μM drug preincubated with serum 10 min at 37°): 1.0 ± 0.1 µM
3 | OCCN1CCN(CCCN2c3ccccc3Sc3ccc(C(F)(F)F)cc32)CC1 [fluphenazine] | 0.12 ± 0.01 µM | 
4 | CN1CCN(CCCN2c3ccccc3Sc3ccc(C(F)(F)F)cc32)CC1 [trifluoperazine] | 0.16 ± 0.2 µM | 
